Laboratory results from patent publication US20230212606A1, “COMPOSITIONS AND METHODS FOR TREATING KCNQ4-ASSOCIATED HEARING LOSS” (Akouos, Inc., priority 2020, published 2023).

Tests used:
[1] = system: KCNQ4; assay: SaCas9/gRNA knockdown of KCNQ4 in HEK cells, western blot, TIDE, immunofluorescence (FIG. 10); assay type: cell-based, human; conditions: western blot and immunofluorescence analyses (data not shown)
Source text: The present example describes a targeting strategy that knocks out both KCNQ4 alleles and replaces wild-type KCNQ4 with a codon-optimized KCNQ4 using a SaCas9/gRNA strategy FIG. (FIG. 9). The present example also describes an in vitro analysis of KCNQ4 knockdown in HEK cells via Western blot and quantitative PCR.
The following guides were transfected with SaCas9 and KCNQ4 DNA to determine knockdown efficiency: sg233Fw (lane 2), sg386Fw (lane 3), sg408Rev (lane 4), sg447Fw(lane 5), sg482Fw (lane 6), and sg490Fw (lane 7). An untransfected control (lane 8), sgVEGF (targeting VEGF) (lane 9), and Beta-Actin expression (lanes 2-9) were used as controls. […] To expand and/or improve upon results obtained thus far, similar experiments can be performed in 3T3 cells using deadCas9 and mouse sgRNA sequences.

[2] = system: KCNQ4; assay: shRNA- and CRISPR-mediated knockdown of KCNQ4 expression in HEK293 cells (FIG. 3, lanes); assay type: cell-based, human; conditions: HEK293 cells with KCNQ4 construct, N=4 biological replicates
Protocol: The following shRNA constructs and KCNQ4 constructs were tested in HEK293 cells: sh395, sh909, sh1095, sh1531, sh1593, sh1677, sh1721, and sh1827 (see FIG. 3). The following constructs were tested in HEK293 cells as a positive control (e.g., as a reference for maximum knockdown of KCNQ4 that can be achieved): SaCas9+sgRNA 447Fw+KCNQ4 (lane 11). A shVEGF construct (targeting VEGF) and KCNQ4 construct were tested in HEK293 cells as a negative control (lane 10). In addition, only the KCNQ4 construct was tested in HEK293 cells as a negative control (lane 12). […] The level of expression of KCNQ4 was most reduced by sh1827 and sgRNA 447Fw in this example. FIGS. 11 and 12 each show efficacy of knockdown with each of the shRNA constructs as well as an empty shRNA construct (“Mock”). Levels of KCNQ4 were measured using quantitative PCR, normalized to GAPDH. Two independent biological replicates were performed (FIGS. 11 and 12), each of which had three replicates per condition.

Row | Substance | inhibition of KCNQ4 expression relative to other sgRNAs [1] | level of expression of KCNQ4 [2]
1 | sgRNA 386Fw: gRNA targeting KCNQ4, SEQ ID NO: 42, target AGGAGCACCAGGAACTTGCCA (expressed or natural sequence) | inhibited KNCQ4 expression more than other sgRNAs | 
2 | sgRNA 408Rev: gRNA targeting KCNQ4, SEQ ID NO: 43, target AAGCCGAAAACCACGATCATC (expressed or natural sequence) | inhibited KNCQ4 expression more than other sgRNAs | 
3 | sgRNA 447Fw: gRNA targeting KCNQ4, SEQ ID NO: 45, target TTTCGGCTTGGAGTACATCGT; used with SaCas9 (expressed or natural sequence) |  | most reduced
4 | sh1827: shRNA construct targeting KCNQ4; by order probably SEQ ID NO: 55 (GGTGGATGAAATCAGCATGATCGAAATCATGCTGATTTCATCCACC) |  | most reduced
